Data on 47 compounds can be found in US4616038A, “Combination of thienamycin-type antibiotics with dipeptidase inhibitors” (Merck & Co., Inc., priority 1985, dated 1986).

The nature of series [1]: Plasma level of thienamycin class compound in the mouse. The class given is in vivo. The settings on record: po, 10 mg/kg; for concentration at 0.5 h: 30 minutes; for concentration at 1 h: 60 minutes; for concentration at […]: 90 minutes. How it is done: (§1) An in vivo assay is conducted using 34 Charles River CD female mice. Seventeen of the mice are administered 40 mg/kg of the inhibitor 7-(L-2-amino-2-carboxyethylthio)-2-(2,2-dimethylcyclopropanecarboxamido)-2-heptenoic acid subcutaneously, and an additional 40 mg/kg per os. Immediately thereafter they and an additional 17 mice are administered 10 mg/kg of the thienamycin class compoud (±)-[5R,6S]-2-ethylthio-6[(R)-1-hydroxyethyl]-pen-2-em-3-sodiocarboxylate by oral gavage. The level of the latter compound in plasma is tested at 10, 30, 60 and 90 minutes using 3 mice from each group at each time period.

Series [2] can be described thus: Urinary recovery of thienamycin class compound in the mouse. As to conditions: urine, po, 10 mg/kg; for dose excreted: Total. The class given is in vivo. The procedure:
as §1
The remaining 5 mice from each group are tested for urinary recovery of the thienamycin class compound with the following results.

In series [3] the target is T1, renal dipeptidase (E.C.3.4.13.11) (Sus scrofa, UniProt P22412).
T1 construct: solubilized preparation of dipeptidase isolated from hog kidneys; from tissue; host or cells: hog kidney
T1 sequence (P22412 17-409): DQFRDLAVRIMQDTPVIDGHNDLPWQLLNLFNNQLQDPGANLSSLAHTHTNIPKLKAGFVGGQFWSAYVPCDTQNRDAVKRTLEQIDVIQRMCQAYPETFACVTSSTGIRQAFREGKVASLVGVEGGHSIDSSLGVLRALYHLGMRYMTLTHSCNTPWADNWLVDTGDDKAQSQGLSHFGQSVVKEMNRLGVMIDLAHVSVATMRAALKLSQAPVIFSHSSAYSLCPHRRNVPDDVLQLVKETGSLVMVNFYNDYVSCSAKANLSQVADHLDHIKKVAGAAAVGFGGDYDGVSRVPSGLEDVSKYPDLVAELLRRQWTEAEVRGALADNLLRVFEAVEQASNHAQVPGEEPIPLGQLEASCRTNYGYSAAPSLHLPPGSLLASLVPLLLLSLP
In words: Inhibition of glycyldehydrophenylalanine (GDP) hydrolysis by renal dipeptidase in vitro. The class given is biochemical, pig (hog). How it is done: This measured the ability of compounds to inhibit hydrolysis of glycyldehydrophenylalanine (GDP) by a solubilized preparation of dipeptidase isolated from hog kidneys The procedure is as follows to a 1 ml. system containing 50 mM "MOPS" (3-(N-morpholino)propanesulfonic acid) buffer, pH 7.1, is added 5 μg of lyophilized enzyme, and the test compound at a final concentration of 0.1 mM. After a five minute incubation at 37° C., GDP is added to a final concentration of 0.05 mM. Incubation is continued for 10 minutes, at 37° C. and hydrolysis of GDP is measured by the change in optical density with time at 275 nm. Inhibition of the enzyme is gauged by comparison to a standard run containing no inhibitor and is expressed as the inhibitor binding constant, Ki.
A 1 ml. system of 50 mM "MOPS" buffer, pH 7.1, is used. To this is added 5 μg of the pig renal enzyme and an amount of the test compound to bring its final concentration to 0.1 mM. After a five minute incubation at 37° C., an amount of GDP is added to bring its final concentration to 0.05 mM. The system is again incubated for 10 minutes, at 37° C. Hydrolysis of GDP is measured by its change in optical density with time at 275 nm. Inhibition of the enzyme is gauged by comparison to a standard run containing no inhibitor and is presented as percent inhibition.

The mark [4] stands for this setting: 10 mg/kg oral plus inhibitor (40 mg/kg SC + 40 mg/kg per os).
Where [5] appears, read: concentration producing 50% inhibition, substrate GDP 0.05 mM, pH 7.1, 37° C., read-out: Ki.

SMILES strings stand for the structures. Where two headings read alike, the source gives them in different places.

The term Ki denotes the dissociation constant of the complex between target and ligand, obtained from inhibition or displacement. Broadly, the inhibition is how much of the control response was suppressed. A higher inhibition goes with strong suppression.

In the case of `CCSC1=C(C(=O)O)N2C(=O)[C@H]([C@@H](C)O)[C@H]2S1` (relative stereo) [Thienamycin Class Compound, (±)-[5R,6S]-2-ethylthio-6[(R)-1-hydroxyethyl]-pen-2-em-3-sodiocarboxylate], in series [1] (setting [4]), the concentration at 10 min is 2600 µg/mL, the concentration at 0.5 h amounted to 4800 µg/mL, the concentration at 1 h was 6100 µg/mL and the concentration at […] amounted to 3800 µg/mL. In series [1] (compound alone, 10 mg/kg oral), this compound gave a concentration at 10 min of 3100 µg/mL, a concentration at 0.5 h of 3700 µg/mL, a concentration at 1 h of 4400 µg/mL and a concentration at […] of 1800 µg/mL. In series [2] (setting [4]), the dose excreted at 1 h came to 1.5%, the dose excreted at 3 h was found to be 2.3% and the dose excreted is 3.8%. Moreover, in series [2] (compound alone, 10 mg/kg oral), the dose excreted at 1 h was determined as 1.8%, the dose excreted at 3 h is 0.6% and the dose excreted was 2.4%. Regarding `C/C=C(\NC(=O)C1CC1C)C(=O)O` (stereo not shown) [Compound 3], in series [3] (setting [5]), the inhibitory constant (Ki) is 1700 nM. Still for that read-out and setting: in the case of `CC/C=C(\NC(=O)CC(C)C)C(=O)O` [Compound 4] it was 3200 nM.

For the compound `C/C=C(\NC(=O)CC(C)CC(C)(C)C)C(=O)O` (stereo not shown) [Compound 5], in series [3] (setting [5]), the Ki amounted to 4400 nM. Same read-out and setting: the value for `C/C=C(\NC(=O)C1C(C)C1C)C(=O)O` (stereo not shown) [Compound 6] was 4600 nM; that for `C/C=C(\NC(=O)C1CCC1)C(=O)O` [Compound 8] was 6200 nM. On the same count and under the same terms, the value for `C/C=C(\NC(=O)CC1CCC1)C(=O)O` [Compound 9] was 6600 nM. In the case of `C/C=C(\NC(=O)CC(C)CC)C(=O)O` (stereo not shown) [Compound 11], in series [3] (setting [5]), the inhibition constant (Ki) worked out at 10000 nM.

With `C[N+](C)(C)CCCCC/C=C(\NC(=O)C1CC1(Cl)Cl)C(=O)[O-]` (stereo not shown) [Compound 13], the inhibitory constant (Ki) in series [3] (setting [5]) was found to be 180 nM.

For `CC1(C)CC1C(=O)N/C(=C\CCCCC[N+](C)(C)C)C(=O)[O-]` (stereo not shown) [Compound 14], the Ki in series [3] (setting [5]) came out at 1110 nM. Turning to `CC(=N)NCCCCC/C=C(\NC(=O)C1CC1(C)C)C(=O)O` (stereo not shown) [Compound 15], the Ki in series [3] (setting [5]) was found to be 720 nM. The compound `CC1(C)CC1C(=O)N/C(=C\CCCCSC[C@H](N)C(=O)O)C(=O)O` (stereo partly shown) [Compound 17] had a Ki in series [3] of 210 nM.

On to `C/C=C(\NC(=O)CCCCCCC)C(=O)O` [Compound 19, Z-2-octanamido-2-butenoic acid], for which, in series [3] (setting [5]), the Ki stood at 26000 nM. For the compound `C/C=C(\NC(=O)CCC)C(=O)O` [Compound 20, Z-2-butyramido-2-butenoic acid], in series [3] (setting [5]), the Ki is 30000 nM.

For `C/C=C(\NC(=O)CCCC1CCCCC1)C(=O)O` [Compound 21], the Ki in series [3] (setting [5]) is 30000 nM. Still for that read-out and setting: in the case of `C/C=C(\NC(=O)CC1CC1)C(=O)O` [Compound 22] it was 22000 nM. Still for that read-out and setting: the value for `C/C=C(\NC(=O)CCCC)C(=O)O` [Compound 23, Z-2-valeramido-2-butenoic acid] was 32000 nM.

Regarding `C/C=C(\NC(=O)C1CCCC1)C(=O)O` [Compound 24], in series [3] (setting [5]), the Ki came out at 30000 nM.

Regarding `O=C(O)CC/C=C(\NC(=O)C1CC1)C(=O)O` [Compound 33], in series [3] (setting [5]), the Ki is 5000 nM. As for `C/C=C(\NC(=O)CC(C)CCOC)C(=O)O` (stereo not shown) [Compound 34], in series [3] (setting [5]), the Ki amounted to 9000 nM. In the case of `C/C=C(\NC(=O)CCCCCBr)C(=O)O` [Compound 35], in series [3] (setting [5]), the Ki came out at 19000 nM.

Consider `C/C=C(\NC(=O)CCCc1ccccc1)C(=O)O` [Compound 37], for which the Ki in series [3] (setting [5]) came to 11000 nM. As for `C/C=C(\NC(=O)C1CC1C(C)(C)C)C(=O)O` (stereo not shown) [Compound 38], the inhibition constant (Ki) in series [3] (setting [5]) is 6500 nM. Still for that read-out and setting: the value for `CCCCC/C=C(\NC(=O)CC(C)C)C(=O)O` [Compound 39, Z--isovaleramido-2-octenoic acid] was 2600 nM. The same measure, in the same setting: the value for `C/C=C(\NC(=O)C1CC1(C)CC)C(=O)O` (stereo not shown) [Compound 40] was 450 nM. The compound `CC(C)/C=C(\NC(=O)C1CC1(C)C)C(=O)O` (stereo not shown) [Compound 41] returned an inhibition at 100 µM in series [3] (10^-4 M inhibitor, 0.05 mM GDP, pH 7.1, 37° C.) of 98%. The Ki in series [3] (setting [5]) was determined as 540 nM.

Regarding `C/C=C(\NC(=O)C1CC1(CC)CC)C(=O)O` (stereo not shown) [Compound 42], in series [3] (setting [5]), the Ki amounted to 860 nM.

`C/C=C(\NC(=O)C1CC1CC)C(=O)O` (stereo not shown) [Compound 43]: in series [3] (setting [5]), the Ki came to 1600 nM. The same measure, in the same setting: the value for `C/C=C(\NC(=O)C1CC1(C)C(C)C)C(=O)O` (stereo not shown) [Compound 44] was 3000 nM. Same read-out and setting: in the case of `CC/C=C(\NC(=O)C1CC1(C)C)C(=O)O` (stereo not shown) [Compound 45] it was 180 nM. The same measure, in the same setting: the value for `CC1(C)CC1C(=O)N/C(=C\c1ccccc1)C(=O)O` (stereo not shown) [Compound 46] was 620 nM; that for `CCC/C=C(\NC(=O)C1CC1(C)C)C(=O)O` (stereo not shown) [Compound 47] was 110 nM. `CC(C)C/C=C(\NC(=O)C1CC1(C)C)C(=O)O` (stereo not shown) [Compound 48]: the inhibition constant (Ki) in series [3] (setting [5]) was determined as 230 nM. Still for that read-out and setting: in the case of `CCCC/C=C(\NC(=O)C1CC1(C)C)C(=O)O` (stereo not shown) [Compound 49] it was 110 nM. Still for that read-out and setting: the value for `CCCCC/C=C(\NC(=O)C1CC1(C)C)C(=O)O` (stereo not shown) [Compound 50] was 170 nM. For the compound `CC1(C)CC1C(=O)N/C(=C\CC1CCCCC1)C(=O)O` (stereo not shown) [Compound 52], the Ki in series [3] (setting [5]) was 150 nM. As for `CC1(C)CC1C(=O)N/C(=C\CCc1ccccc1)C(=O)O` (stereo not shown) [Compound 53], the Ki in series [3] (setting [5]) is 330 nM.

Take `CSCC/C=C(\NC(=O)C1CC1(C)C)C(=O)O` (stereo not shown) [Compound 54]: the Ki in series [3] (setting [5]) turned out to be 120 nM. On the same count and under the same terms, in the case of `CC1(C)CC1C(=O)N/C(=C\CCS(C)(=O)=O)C(=O)O` (stereo not shown) [Compound 55] it was 500 nM; in that of `CCCCCCCCCC/C=C(\NC(=O)C1CC1(C)C)C(=O)O` (stereo not shown) [Compound 58], 140 nM; in that of `COCCC/C=C(\NC(=O)C1CC1(C)C)C(=O)O` (stereo not shown) [Compound 60], 280 nM. Same read-out and setting: the value for `COCC/C=C(\NC(=O)C1CC1(C)C)C(=O)O` (stereo not shown) [Compound 61] was 320 nM; that for `CC(C)(C)C/C=C(\NC(=O)C1CC1(C)C)C(=O)O` (stereo not shown) [Compound 62] was 340 nM. Consider `CC(C)CC/C=C(\NC(=O)C1CC1(C)C)C(=O)O` (stereo not shown) [Compound 63], for which the Ki in series [3] (setting [5]) turned out to be 150 nM. Same read-out and setting: the value for `CCCCC/C=C(\NC(=O)[C@H]1CC1(C)C)C(=O)O` [Compound 66] was 80 nM. In the case of `CC(NCCCCC/C=C(\NC(=O)C1CC1(C)C)C(=O)O)P(=O)(O)O` (stereo not shown) [Example 18B], the Ki in series [3] (Example 18B, unit inferred, read-out: Ki) turned out to be 160 nM. With `CCCCC/C=C(\NC(=O)[C@H]1CC1(C)C)C(=O)O` [dextrorotatory isomer, Z-2-(2,2-dimethylcyclopropanecarboxamido)-2-octenoic acid], in series [3] (resolved racemic Z-2-(2,2-dimethylcyclopropanecarboxamido)-2-octenoic acid), the “activity of resolved isomers” value was “The activity resides in the dextrorotatory isomer”.
